Results reported in US11192967B1, “Thermosetting polyimides derived from resveratrol” (The United States of America, as represented by the …, priority 2017, dated 2021).
Read-outs that look alike come from different tables or passages of the source.

How the values were obtained:
Mutagenicity (Ames test) = type: cell-based
Protocol: (§1) Toxicity Testing. In vitro toxicity tests were conducted for compounds 1-3.

In vitro cytotoxicity = type: cell-based; conditions: concentration at which cytotoxicity was observed; solubility limit 10 μg/mL for 3
Protocol: as §1

LD50 (toxicity testing) = conditions: listed among in vitro toxicity test results
Aquatic toxicity = conditions: for Aquatic toxicity (in words): 1 and 2 compared to MDA
Protocol: as §1

SMILES | Mutagenicity (Ames test) (Mutagenicity (Ames test)) | Mutagenicity (Ames test) (Mutagenicity (Ames test); listed as Compound 3) | Cytotoxicity (In vitro cytotoxicity) | LD50 (LD50 (toxicity testing); read-out: LD50) [mg/kg] | Aquatic Toxicity (Aquatic toxicity) [mg/L] | Aquatic toxicity (in words) (Aquatic toxicity) | LD50 (LD50 (toxicity testing)) [mg/kg]
Nc1ccc(Oc2ccc(CCc3cc(Oc4ccc(N)cc4)cc(Oc4ccc(N)cc4)c3)cc2)cc1 [compound 3] | Not mutagenic | not mutagenic | None observed | 568 | >2000 | remarkably low aquatic toxicity | –
Nc1ccc(/C=C/c2cc(N)cc(N)c2)cc1 [compound 1, (E)-5-(4-aminostyryl)benzene-1,3-diamine] | Mutagenic | – | >/=3.2 μg/mL | 301 | 1153 | substantially reduced aquatic toxicity compared to MDA | –
Nc1ccc(Cc2ccc(N)cc2)cc1 [MDA, Methylene dianiline, reference compound] | Mutagenic | – | – | – | 14.30 | – | 944
Nc1ccc(CCc2cc(N)cc(N)c2)cc1 [compound 2] | Mutagenic | – | >/=3.2 μg/mL | 820 | 52.7 | substantially reduced aquatic toxicity compared to MDA | –
